Assay results reported in US9238034B2, “FN14 antagonists and therapeutic uses thereof” (THE TRANSLATIONAL GENOMICS RESEARCH INSTITUTE, priority 2013, dated 2016).

Experiments:
TWEAK = biological target: T1, TWEAK (Homo sapiens, UniProt O43508); assay: Surface Plasmon Resonance assay, TWEAK sensor surface; type: binding; conditions: SPR, 0 to 50 μM
T1 sequence (O43508 94-249 limits assumed): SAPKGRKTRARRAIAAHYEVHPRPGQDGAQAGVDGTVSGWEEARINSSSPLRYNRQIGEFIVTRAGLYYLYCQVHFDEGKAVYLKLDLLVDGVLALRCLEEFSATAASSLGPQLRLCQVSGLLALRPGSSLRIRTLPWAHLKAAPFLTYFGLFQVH
Protocol: (§1) Surface Plasmon Resonance (SPR) Assay. The binding affinity of at least one of the compounds (e.g., L524-0366) to TWEAK and Fn14-Fx was determined using a BIAcore T100 optical biosensor (GE Healthcare) at 25 degrees Celsius at the Arizona Proteomics Consortium. Recombinant human TWEAK (20 μg/mL in 10 mM HEPES pH 7.4, 150 mM NaCl, 3 mM EDTA, 0.05% Tween 20) or recombinant human Fn14-Fc (20 μg/mL in 10 mM NaOAc pH 4.0) were covalently coupled to separate flow cells on a BIAcore CM5 sensor chip using standard amine coupling chemistry as per manufacturer's protocol. Final immobilization levels were 6000 Response Units (RU) for TWEAK and 13,000 RU for FN14-Fc. The first flow path of the chip was treated with the same coupling and blocking reagents without protein and was used as a reference for each binding cycle. Functionality of the TWEAK and the Fn14-Fc sensor surfaces were verified by injecting Fn14-Fc and TWEAK over them respectively. Serial dilutions of L524-0366 or cycloheximide (control) from 0 to 50 μM were made in running buffer (10 mM HEPES pH 7.4, 150 mM NaCl, 3 mM EDTA, 1% DMSO). […] Equilibrium dissociation constants for the small molecules were calculated by fitting the double reference subtracted data to Req=((CRmax)/(KD+C))+RI, where RI is the bulk refractive index contribution.

T98G glioma cells [1] = assay: Cytotoxicity assay, CellTiter-Glo; type: cell-based, human; conditions: up to 50 μM, 72 hr
Protocol: Cytotoxicity Assay. Cytotoxic effects of drugs on glioma cells were analyzed by quantifying the ATP, an indicator of metabolically active cells. Briefly, glioma cells were seeded in tissue culture treated white 96-well plates at 3×10^3 cells/well in 80 μL Opti-MEM media (Invitrogen) and incubated for 24 hr at 37° C. After 24 hr incubation, 20 μL of 5× drug solution at required concentration in Opti-MEM was added to each well and incubated for 72 hr at 37° C. Opti-MEM/DMSO mixture without drug was used as negative control and 20 μM staurosporine was used as positive control. At the end of 72 hr incubation, the number of viable cells were quantified by using CellTiter-Glo assay kit (Promega, Madison, Wis.) according to the manufacturer's instructions. Luminescence signal measured was normalized to negative control to determine % cell viability.

Fn14 = biological target: T2, Fn14 (Homo sapiens, UniProt Q9NP84); assay: Surface Plasmon Resonance assay, Fn14-Fc sensor surface; type: binding; conditions: Fn14 surface, SPR, 25 degrees Celsius
T2 construct: the human Fc fragment-tagged Fn14 extracellular domain (R&D Systems) was captured
T2 sequence (Q9NP84 28-80 limits assumed): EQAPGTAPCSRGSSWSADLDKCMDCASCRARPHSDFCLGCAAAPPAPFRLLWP
Protocol: as §1

T98G glioma cells [2] = assay: Cell migration assay, modified Boyden chamber, TWEAK induced; type: cell-based, human; conditions: 10 μM, 5 hours
Protocol: Cell Migration Assay. The effect of pharmacological inhibition of TWEAK/Fn14 signaling on glioma cell migration was analyzed using a modified Boyden chamber (Neuroprobe, Cabin John, Md.) as described previously (Lamszus, K., et al. (1998) Journal international du cancer 75, 19-28; Brockmann, M. A., et al. (2003) Neurosurgery 52, 1391-1399). Each well contains a […] pore size Nucleopore filter that had been coated with 50 μg/mL PureCol® (Bovine Collagen) (Advanced Biomatrix, Poway, Calif.). T98G glioma cells were treated with selected drug compound for 1 hr and then seeded at 4.8×10^4 cells in 100 μL of DMEM with 0.1% bovine serum assay medium to the top well of the chamber. TWEAK was added to the lower wells of the chamber using DMEM with 0.1% bovine serum albumin as assay medium. After incubation for 5 hours at 37° C., nonmigrated cells were scraped off the upper side of the filter, and filters were stained with 4′,6-diamidino-2-phenylindole (DAPI). Nuclei of migrated cells were counted in 5 high-power fields (HPF) with a 20× objective. Values were assessed in triplicate.

`O=C(c1cn(-c2cccc(Cl)c2)nn1)N1CCSCC1` [Compound L524-0366] was tested, and the “binding to TWEAK” value (TWEAK) was “not to the TWEAK surface”, the cytotoxicity (T98G glioma cells [1]) was “did not demonstrate any cytotoxicity” and the Kd (Fn14) was 7.12 µM. The “TWEAK-induced T98G cell migration” value (T98G glioma cells [2]) was “completely suppressed”.
